Measurements from PMC9256669, “Monomethyl auristatin antibody and peptide drug conjugates for trimodal cancer chemo-radio-immunotherapy” (Nature Communications, 2022).
Several values for one entry are separate records, joined by “and”; a condition that tells them apart may be missing. Identical values can stand only once. Like-named read-outs stand apart in the source and are kept apart here.

Assays:
[1] = system: MC38 tumors; conditions: status at the day printed in the same line, one line per mouse
Procedure: MOC1, B16, LL/2, and MC38 tumor cells were injected subcutaneously into the hindlimbs of 6-week-old female C57BL/6 albino mice in 100 µl of 1:1 Matrigel (BD) and PBS solution. Fractionated IR was delivered focally to the tumor-bearing hindlimbs (3 Gy to MC38 tumors and 5 Gy to LL/2 and B16 tumors) as indicated in figure legends using a PXI X-RAD 225 XL irradiator at maximal dose rate of 3 Gy/min with a beam-conditioning aluminum filter (Precision X-ray Irradiation). For RAG1 KO studies, 6-week-old female Rag1^tm1Mom mice were injected subcutaneously with tumor cells in their hindlimbs (Jackson Labs). For CD8 depletion studies, mice were i.p. injected with anti-CD8 (BioXCell #BE0117) at 10 mg/kg on days −6, −5 and −4 tumor cell implant and then weekly starting on day after tumor cells were injected or control antibody. […] Tumor volumes were measured and calculated using the formula as ½ * length * width^2. Mice were sacrificed when tumor volume reached >1500 mm^3, maximal tumor volume approved on our protocol for subcutaneous tumors.

[2] = system: B16 tumors; assay: NanoString nCounter PanCancer Mouse Immune Profiling of tumors; assay type: in vivo, C57BL/6 mice; conditions: ACPP-MMAE alone vs vehicle
Procedure: RNA was isolated from cells or tumor tissues and comprehensive immune profiling was analyzed using the NanoString PanCancer IO 360 Panel and NanoString nCounter PanCancer Mouse Immune Profiling gene expression platforms. Gene set analysis with calculated global significance scores and directed significance scores were calculated for treated cells. The Advanced Analysis module of the nSolver software was used to analyze genes associated with listed immune cells in tumors and given a Z-score (n = 3 mice per group). Expression levels of GZMB were analyzed using real-time quantitative PCR. Reverse transcription was performed with the iScript cDNA synthesis kit (Biorad), using aliquots of total RNA extracted with RNeasy Plus Mini Kit (Qiagen). Gene-specific primers were GZMB-F […] and GZMB-R […]. Real-time PCR reactions were performed using the CFX Connect Real-Time PCR System (Biorad) and the amplifications were done using the iTaq Universal SYBR Green Supermix (Biorad). qPCR data were analyzed using the Bio-Rad CFX Maestro software.
Supplementary Data 1: Complete NanoString expression data of Figure 1b. Untreated control (n=2) and 5 nM MMAE treated (n=3) B16 cells were harvested at 72 hrs. RNA was collected and analyzed using NanoString PanCancer IO 360 Panel. […]
were harvested. RNA was collected and analyzed using NanoString nCounter PanCancer Mouse Immune Profiling panel. […]

[3] = system: MOC2 tumors; assay: Orthotopic tumor CyTOF analysis of immune infiltrate; assay type: in vivo, C57BL/6 mice; parameters: Immune cell quantification: M2 / CyTOF cell quantification, Immune cell quantification: CD4+ / CyTOF cell quantification, Immune cell quantification: M1 / CyTOF cell quantification, Immune cell quantification: M-MDSC / CyTOF cell quantification, Immune cell quantification: PMN-MDSC / CyTOF cell quantification, Immune cell quantification: Eosinophils / CyTOF cell quantification, Immune cell quantification: B cells: unit not given here
Procedure: 6-week-old C57BL/6 female mice were implanted with 50,000 MOC2 cells into the tongue. […] […] Tissues were incubated for 15 min at 37 °C and mechanically digested using the gentle MACs Octo Dissociator. Digested samples were then passed through a 100-µm strainer to acquire a single-cell. For viability staining, cells were washed in PBS and stained with Cell-ID Cisplatin (DVS Sciences) to a final concentration of 5 μM for 5 min at room temperature. Cisplatin was quenched when cells were washed and stained with the antibody cocktail. Antibodies were prepared in Maxpar cell staining buffer (PBS with 2 mM EDTA, 0.1% BSA, 0.05% NaN3) and incubated with cells for 15 min at room temperature. […] Antibodies (clone in parenthesis) used for CyTOF included B220 (RA3-6B2), CD117(2B8), CD11c (N418), CD25 (3C7), CD4 (RM4-5), CD45 (30-F11), CD8a (53-6.7), MHC-II (M5/114.15.2), NKP46 (29A1.4), TCRb (H57-597) from Fluidigm. Antibodies CD103 (2E7), CD115 (AFS98), CD11b (M1/70), CD19 (6D5), CD23 (B3B4), CD3 (145-2C11), CD64 (X54-5/7.1), F4/80 (BM8), FCeRI (Mar-1), FR4 (TH6), Ly6C (HK1.4), Ly6G (1A8), NK1.1 (PK136) from BioLegend and antibody Siglec-F (1RNM44N) from ebioscience. All antibodies were validated by the supplier and used at a 1:100 dilution. Cells were washed with staining buffer and pelleted. Before acquiring, cells were resuspended in 0.1× dilution of EQ Four Element Calibration beads (Fluidigm) and filtered through a 35 μm nylon mesh filter. Cells were acquired on a Helios CyTOF Mass Cytometer (Fluidigm) at an event rate of 200 events/s or less. Data was normalized using Matlab-based normalization software based on the EQ bead-removal. Prior to analysis, samples were subsampled to the lowest number of events and all counts were normalized to the same number of total events, 2324. To detect clusters of cells with a similar expression of surface markers in CyTOF, single cells were gated and clustered using unsupervised dimensionality reduction algorithm optimal t-Distributed Stochastic Neighbor Embedding (opt-SNE) algorithm in OMIQ data analysis software (www.omiq.ai) (530 iterations, Perplexity 30, and Theta 0.5)[51].
Supplementary Figure 8: CyTOF analysis of tumor immune infiltrates. a)
populations identified with opt-SNE. b) MOC2 murine tumors orthotopically implanted
Tumors harvested on day 11, analyzed by CyTOF,
provided in Source Data file.

Substance: cyclo(RGD)fc-MC-HN-peg8-e9-oPLGC(Me)AG-r9-c-(MC-VC-PABC-MMAE)-CONH2 [ACPP-MMAE]
- Mouse survival, status ([1]; ACPP-MMAE + IR + αPD1): 1 and 0
- Mouse survival, status ([1]; ACPP-MMAE + IR): 1
- tumor infiltration of immune cell types (NanoString) [2]: minimal effects

Substance: CDX3379-MMAE: anti-HER3 antibody CDX3379 with 4 MMAE per antibody via MC-VC-PABC linker, labeled with Cy5
- Immune cell quantification: CD8+ ([3]; MOC2 tumors, 2.5 nmoles drug on day 7, CyTOF on day 11, counts normalized to 2324 total events (percent of counts as in Supp. Fig. 8b), one value per tumor, untreated 0.26, 1.08, 0.73, 0.77): 0.86 and 0.95
- Immune cell quantification: T regs ([3]; MOC2 tumors, 2.5 nmoles drug on day 7, CyTOF on day 11, one value per tumor, untreated 0.52, 0.82, 0.90, 0.65): 1.64 and 1.12 and 1.68
- CyTOF cell quantification, Immune cell quantification: B cells ([3]; Tumor #1): 1.59
- CyTOF cell quantification, Immune cell quantification: CD4+ ([3]; Tumor #1): 3.49
- CyTOF cell quantification, Immune cell quantification: Eosinophils ([3]; Tumor #1): 19.75
- CyTOF cell quantification, Immune cell quantification: M1 ([3]; Tumor #1): 1.46
- CyTOF cell quantification, Immune cell quantification: M-MDSC ([3]; Tumor #1): 5.98
- CyTOF cell quantification, Immune cell quantification: PMN-MDSC ([3]; Tumor #1): 55.25
- CyTOF cell quantification, Immune cell quantification: B cells ([3]; Tumor #2): 0.69
- CyTOF cell quantification, Immune cell quantification: CD4+ ([3]; Tumor #2): 3.53
- CyTOF cell quantification, Immune cell quantification: Eosinophils ([3]; Tumor #2): 13.68
- CyTOF cell quantification, Immune cell quantification: M1 ([3]; Tumor #2): 0.69
- CyTOF cell quantification, Immune cell quantification: M-MDSC ([3]; Tumor #2): 5.25
- CyTOF cell quantification, Immune cell quantification: PMN-MDSC ([3]; Tumor #2): 63.34
- CyTOF cell quantification, Immune cell quantification: B cells ([3]; Tumor #3): 1.94
- CyTOF cell quantification, Immune cell quantification: CD4+ ([3]; Tumor #3): 1.98
- CyTOF cell quantification, Immune cell quantification: Eosinophils ([3]; Tumor #3): 11.88
- CyTOF cell quantification, Immune cell quantification: M1 ([3]; Tumor #3): 0.43
- CyTOF cell quantification, Immune cell quantification: M-MDSC ([3]; Tumor #3): 4.09
- CyTOF cell quantification, Immune cell quantification: PMN-MDSC ([3]; Tumor #3): 66.35
- CyTOF cell quantification, Immune cell quantification: B cells ([3]; Tumor #4): 2.11
- CyTOF cell quantification, Immune cell quantification: CD4+ ([3]; Tumor #4): 4.39
- CyTOF cell quantification, Immune cell quantification: Eosinophils ([3]; Tumor #4): 27.02
- CyTOF cell quantification, Immune cell quantification: M1 ([3]; Tumor #4): 0.47
- CyTOF cell quantification, Immune cell quantification: M-MDSC ([3]; Tumor #4): 2.54
- CyTOF cell quantification, Immune cell quantification: PMN-MDSC ([3]; Tumor #4): 51.89
- Immune cell quantification: M2 ([3]; mouse, in vivo): 1.20 and 2.19 and 1.25 and 1.42
- tumor immune populations changed (CyTOF) ([3]; orthotopic MOC2 tumors, single 2.5 nmole i.v. injection): regulatory T cells, dendritic cells and NK cells that were upregulated
